# Assay results from PMC3605724 (Molecular pharmaceutics, 2013).
# Values joined by “and” are separate entries in the source; they are usually repeats but may differ in a detail not shown here. Identical values can stand only once. Counter-ions that a name gives are not always drawn. Like-named read-outs stand apart in the source and are kept apart here.
# What was measured:
# [1] = pKa; format: physicochemical
# [2] = tested on: rat small intestine; conditions: cited from earlier work
# [3] = cited from earlier work
# [4] = Transport studies across Caco-2 cell monolayers; conditions: human
# [5] = tested on: Caco-2 cell monolayers; conditions: human, Caco-2, pH 7.5
# [6] = tested on: rat intestine (proximal jejunum and distal ileum); assay: In situ single-pass intestinal perfusion; format: in vivo; conditions: physiological vs alternate pH, HDS, n = 6
# [7] = tested on: P-gp; conditions: cited from earlier work
# [8] = tested on: Caco-2 cell monolayers; assay: Transport studies across Caco-2 cell monolayers
# [9] = tested on: Caco-2 cells; conditions: Caco-2, initial concentration based on HDS in 250 ml water; cited from earlier work
smiles,measurement,setting,value
CC(CCc1ccccc1)NCC(O)c1ccc(O)c(C(N)=O)c1 (stereo not drawn) [Labetalol],Isoelectric point (maximum unionized fraction),[1],8.4 pH
same,Increase in apparent absorption rate constant of labetalol produced by verapamil,[2]; highest labetalol concentration (100),about 53%
same,Increase in apparent absorption rate constant of labetalol produced by verapamil,[2]; lowest labetalol concentration (10),about 84%
same,Time to reach maximum plasma concentration (tmax),"[3]; 100 mg oral dose, healthy volunteers",48 min
same,Systemic BA (mean),[3]; hypertensive subjects,33%
same,Dose excreted in the urine as unchanged drug,[3]; man,up to 5%
same,Orally administered dose of radioactivity excreted by urine,"[3]; within 24 h, two subjects, 200 mg oral dose",55% and 60%
same,Papp at 120 min,"[4]; Caco-2, pH 6.5",5.96 ± 1.96 ×10⁻⁶ cm/s
same,"Papp A→B at 120 min, 120 μg/ml","[4]; Caco-2, pH 7.5",14.2 ± 1.5 ×10⁻⁶ cm/s
same,"Papp B→A at 120 min, 120 μg/ml","[4]; Caco-2, pH 7.5",46.7 ± 6.5 ×10⁻⁶ cm/s
same,Papp at 120 min,"[4]; Caco-2, pH 7.5",15.9 ± 2.2 ×10⁻⁶ cm/s
same,Increase in AP-BL direction transport caused by verapamil,[5],1.5 times
same,Effect of change of pH (6.5 vs 7.5) on permeability in jejunum and ileum,[6],did not significantly affect
COCCc1ccc(OCC(O)CNC(C)C)cc1 (stereo not drawn) [Metoprolol],Interaction with P-gp,[7],does not interact with P-gp
same,Effect of verapamil on permeability in AP-BL and BL-AP directions,"[8]; 0.1 mM verapamil, 0.1 times HDS (40 μg/ml), AP pH 7.5",no effect
same,Increase of ER under AP pH 6.5,[8]; AP pH 6.5 compared with AP pH 7.5,3.6 times
same,Papp at 120 min,"[4]; Caco-2, pH 6.5",9.44 ± 3.44 ×10⁻⁶ cm/s
same,Papp at 120 min,"[4]; Caco-2, pH 7.5",23.2 ± 7.1 ×10⁻⁶ cm/s
same,Effect of change of pH (6.5 vs 7.5) on permeability in jejunum and ileum,[6],did not significantly affect
CC(CCc1ccccc1)NCC(O)c1ccc(O)c(C(N)=O)c1 (stereo not drawn) [labetalol hydrochloride],Absorption from the GI tract,[3]; FDA product information of Trandate,completely absorbed
"CCn1cc(C(=O)O)c(=O)c2cc(F)c(N3CCNC(C)C3)c(F)c21 (stereo not drawn) [lemofloxacin, lomefloxacin]",Permeability classification based on comparison to labetalol,[9],high permeability
